Test results published in patent publication US20220411478A1, “CD70 TARGETED CHIMERIC ANTIGEN RECEPTOR (CAR) T CELLS AND USES THEREOF” (priority 2019, published 2022).

How the values were obtained:
[1] = test system: OCI-AML3 and Molm13 AML lines; test: CD70 surface expression after incubation with AZA (flow cytometry), AML lines; assay type: cell-based, human
From the text: (§1) The following antibody clones targeting their respective antigens were used for flow cytometric analysis where indicated: CD70 (113-16, Biolegend), PeCy7 isotype (MOPC-21, Biolegend), CD69 (FN50, Biolegend), CD107a (H4A3, Biolegend), mouse TER-119 (TER-119, Biolegend), mouse NK-1.1 (PK136, Biolegend), mouse Ly-6G/Ly-6C (Gr-1, Biolegend), mouse CD11b (Biolegend). In general, cells were stained for fifteen minutes in the dark at 4 degrees Celsius and washed in PBS with 2% FBS. When used, DAPI was added to establish live versus dead separation. Trucount tubes (BD Biosciences, 340334) were used for murine blood CAR quantification according to kit instructions. Quantum Simply Cellular beads (Bangs Laboratories, 815) were used to quantify CD70 surface expression.

Molm13 [2] = test: CD70 and CD33 expression on AML in vivo after AZA (femur aspirates, flow cytometry); set-up: species or system NSG mice; details: five days of AZA IP
From the text: as §1
4.3.1 was used for analysis.
Femur aspirates were analyzed for tumor cells and their CD70 expression via flow cytometry (FIG. 4C). CD70 expression level was compared to isotype controls for each mouse.

CD70 CAR-T cells [3] = test: AZA exposure of CD70 CAR-T cells: cell number and viability; assay type: cell-based, human; details: increasing concentrations of AZA, 24 hours, IL-2
CD70 CAR-T cells [4] = test: Plate bound antigen activation assay after AZA incubation; assay type: cell-based, human; details: 100 μM AZA (supratherapeutic), 24 hours, washed, plate-bound CD70 overnight
Method: After washing in PBS, trD27 or CAR T cells were added for 12 hours followed by flow cytometric staining for CD69.

Molm13 [5] = test: Real-time cytotoxicity assay (impedance) after AZA incubation of CAR-T cells; assay type: cell-based, human; details: CAR-T cells treated in 1 μM AZA, after 96 hours
Method: Cell index was recorded as a measure of impedance using the xCELLigence RTCA SP instrument (ACEA biosciences). […] 125,000 Molm13 cells per well were then plated for 28 hours followed by administration of 125,000 CAR-T cells. Cell index was tracked for 96 hours.

[6] = test system: solid tumor cell lines as well as primary AML blasts; details: hypomethylation of the CD70 promoter; cited from earlier work
Molm13 [7] = test: Aggressive Molm13 AML xenograft, azacitidine with CD70 CAR-T cells
Method: For IHC, murine femurs were washed in PBS and then incubated overnight in 4% paraformaldehyde (PF Thermo-Fisher Scientific AAJ19943K2), followed by an overnight incubation in Cal-ex decalcifier (Fisher Scientific, CS510-1D) and then storage in 70% ethanol until staining. Antibody clones for IHC included the following: CD3 (2GV6, Roche) and CD45 (D9M81, Cell Signaling Technology).
NOD-SCID-γ chain−/− (NSG) (Jackson Laboratories) mice were engrafted with Molm13 cell lines as described for the individual experiments. Mice were maintained at the MGH Center for Cancer Research and all care and conducted experiments were carried out using protocols approved by the Massachusetts General Hospital Institutional Animal Care and Use Committee. […] Cryopreserved CD70 CAR T cells or untransduced T cells were injected intravenously via tail vein at the indicated time points. Tumor burden was monitored via bioluminescence following intraperitoneal injection of D-luciferin substrate solution. AMI spectral imaging was used to perform the image capture and IDL software v. 4.3.1 was used for analysis. Animals were euthanized per the experimental protocol or when they met a priori defined endpoints by IACUC.
A complementary technique was used to verify tumor burden and CAR-T cell expansion. […] To determine if these were cancer cells or infiltrating CAR-T cells, human CD3 was stained.

CD70 CAR-T cells [8] = test: T-cell subset and activation/exhaustion markers under AZA, co-culture with Molm13; details: highest concentrations of AZA

In the case of `Nc1ncn([C@@H]2O[C@H](CO)[C@@H](O)[C@H]2O)c(=O)n1` [AZA, azacitidine], the CD70 expression ([1]; 10 μM AZA, FIG. 15, cell line not named) is reported as “bulk increase in CD70 expression”, the CD70 expression ([1]; incubated with AZA for 20 and 44 hours) is reported as “increase in CD70 expression at higher concentrations” and the “increase in myeloid marker CD33” value (Molm13 [2]) is reported as “not observed”. The “number of CAR-T cells surviving” value (CD70 CAR-T cells [3]) was “same number of CAR-T cells survived”, the “viability of CAR-T cells” value (CD70 CAR-T cells [3]) was “preserved across all conditions” and the “CAR-T cell activation (CD69) compared to control” value (CD70 CAR-T cells [4]) was “significant reduction in activation”. The “CAR-T cytotoxicity vs control” value (Molm13 [5]) was “no statistically significant difference from control”, the CD70 surface expression [6] was “increased CD70 surface expression” and the “treatment effect / tumor control (BLI)” value (Molm13 [7]; AZA 2.5 mg/kg/day IP day +18 for 5 days, T cells day +22) was “slight treatment effect”. For the same compound, the “human CD45 staining of bones (immunohistochemistry)” value (Molm13 [7]; femurs at sacrifice) was “abundant human CD45 staining”, the PD-1 (CD70 CAR-T cells [8]) was “decreases” and the “Tim 3” value (CD70 CAR-T cells [8]) was “decreases”. The effector memory phenotypes (CD70 CAR-T cells [8]) was “increase in effector memory phenotypes”.
